Assays:
Assay in all cases: relative viability (nuclei count vs DMSO), 5 days (fraction); higher = more cells survive
NCI-H520 = test system: NCI-H520
Summary of the method: (§1)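 Relative viability was taken as the ratio of nuclei in treated wells to nuclei in vehicle wells. Lung cancer cell lines in 1536-well plates received compounds by pin tool one day after seeding, either one drug alone or a fixed anchor-drug dose plus five library-drug doses (not always all listed) in √10 steps. Nuclei were counted on 4× images after 5 days of treatment, and values are medians of duplicate plates.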

NCI-H661 = test system: NCI-H661
Summary of the method: as §1

NCI-H1651 = test system: NCI-H1651
Summary of the method: as §1

NCI-H1792 = test system: NCI-H1792
Summary of the method: as §1

NCI-H441 = test system: NCI-H441
Summary of the method: as §1

SW 900 = test system: SW 900
Summary of the method: as §1

NCI-H3122 = test system: NCI-H3122
Summary of the method: as §1

SK-MES-1 = test system: SK-MES-1
Summary of the method: as §1

LCLC-103H = test system: LCLC-103H
Summary of the method: as §1

NCI-H2347 = test system: NCI-H2347
Summary of the method: as §1

NCI-H1355 = test system: NCI-H1355
Summary of the method: as §1

NCI-H596 = test system: NCI-H596
Summary of the method: as §1

NCI-H522 = test system: NCI-H522
Summary of the method: as §1

PC-14 = test system: PC-14
Summary of the method: as §1

NCI-H460 = test system: NCI-H460
Summary of the method: as §1

NCI-H1915 = test system: NCI-H1915
Summary of the method: as §1

RERF-LC-KJ = test system: RERF-LC-KJ
Summary of the method: as §1

NCI-H727 = test system: NCI-H727
Summary of the method: as §1

NCI-H1563 = test system: NCI-H1563
Summary of the method: as §1

NCI-H1755 = test system: NCI-H1755
Summary of the method: as §1

LXF-289 = test system: LXF-289
Summary of the method: as §1

NCI-H322M = test system: NCI-H322M
Summary of the method: as §1

CC(=O)O[C@@]12CO[C@@H]1C[C@H](O)[C@@]1(C)C(=O)[C@H](O)C3=C(C)[C@@H](OC(=O)[C@H](O)[C@@H](NC(=O)OC(C)(C)C)c4ccccc4)C[C@@](O)([C@@H](OC(=O)c4ccccc4)[C@H]21)C3(C)C [Docetaxel] + CCNC(=O)c1noc(-c2cc(C(C)C)c(O)cc2O)c1-c1ccc(CN2CCOCC2)cc1 [Luminespib] (partner 0.01 µM)
relative viability (NCI-H520; first compound 0.000632 µM): 0.23 | relative viability (NCI-H520; first compound 0.002 µM): 0.233 | relative viability (NCI-H520; first compound 0.006325 µM): 0.259 | relative viability (NCI-H520; first compound 0.02 µM): 0.207 | relative viability (NCI-H661; first compound 0.0002 µM): 0.782 | relative viability (NCI-H661; first compound 0.000632 µM): 0.933 | relative viability (NCI-H661; first compound 0.002 µM): 0.707 | relative viability (NCI-H661; first compound 0.006325 µM): 0.432 | relative viability (NCI-H661; first compound 0.02 µM): 0.323 | relative viability (NCI-H1651; first compound 0.0002 µM): 0.821 | relative viability (NCI-H1651; first compound 0.000632 µM): 0.842 | relative viability (NCI-H1651; first compound 0.002 µM): 0.258 | relative viability (NCI-H1651; first compound 0.006325 µM): 0.27 | relative viability (NCI-H1651; first compound 0.02 µM): 0.12 | relative viability (NCI-H1792; first compound 0.0002 µM): 0.43 | relative viability (NCI-H1792; first compound 0.000632 µM): 0.374 | relative viability (NCI-H1792; first compound 0.002 µM): 0.382 | relative viability (NCI-H1792; first compound 0.006325 µM): 0.338 | relative viability (NCI-H1792; first compound 0.02 µM): 0.212 | relative viability (NCI-H441; first compound 0.0002 µM): 0.294 | relative viability (NCI-H441; first compound 0.000632 µM): 0.288 | relative viability (NCI-H441; first compound 0.002 µM): 0.3 | relative viability (NCI-H441; first compound 0.006325 µM): 0.257 | relative viability (NCI-H441; first compound 0.02 µM): 0.253 | relative viability (SW 900; first compound 0.0002 µM): 0.185 | relative viability (SW 900; first compound 0.000632 µM): 0.182 | relative viability (SW 900; first compound 0.002 µM): 0.174 | relative viability (SW 900; first compound 0.006325 µM): 0.186 | relative viability (SW 900; first compound 0.02 µM): 0.167 | relative viability (NCI-H3122; first compound 0.0002 µM): 0.088 | relative viability (NCI-H3122; first compound 0.000632 µM): 0.101 | relative viability (NCI-H3122; first compound 0.002 µM): 0.104 | relative viability (NCI-H3122; first compound 0.006325 µM): 0.0883 | relative viability (NCI-H3122; first compound 0.02 µM): 0.115 | relative viability (SK-MES-1; first compound 0.0002 µM): 0.695 | relative viability (SK-MES-1; first compound 0.000632 µM): 0.618 | relative viability (SK-MES-1; first compound 0.002 µM): 0.267 | relative viability (SK-MES-1; first compound 0.02 µM): 0.163 | relative viability (LCLC-103H; first compound 0.0002 µM): 0.885 | relative viability (LCLC-103H; first compound 0.000632 µM): 0.835 | relative viability (LCLC-103H; first compound 0.002 µM): 0.498 | relative viability (LCLC-103H; first compound 0.006325 µM): 0.443 | relative viability (LCLC-103H; first compound 0.02 µM): 0.218 | relative viability (NCI-H2347; first compound 0.0002 µM): 0.513 | relative viability (NCI-H2347; first compound 0.000632 µM): 0.631 | relative viability (NCI-H2347; first compound 0.002 µM): 0.39 | relative viability (NCI-H2347; first compound 0.006325 µM): 0.311 | relative viability (NCI-H2347; first compound 0.02 µM): 0.34 | relative viability (NCI-H1355; first compound 0.0002 µM): 0.784 | relative viability (NCI-H1355; first compound 0.000632 µM): 0.66 | relative viability (NCI-H1355; first compound 0.002 µM): 0.599 | relative viability (NCI-H1355; first compound 0.006325 µM): 0.255 | relative viability (NCI-H1355; first compound 0.02 µM): 0.194 | relative viability (NCI-H596; first compound 0.0002 µM): 0.872 | relative viability (NCI-H596; first compound 0.000632 µM): 0.58 | relative viability (NCI-H596; first compound 0.002 µM): 0.713 | relative viability (NCI-H596; first compound 0.006325 µM): 0.36 | relative viability (NCI-H596; first compound 0.02 µM): 0.267 | relative viability (NCI-H522; first compound 0.0002 µM): 1.19 | relative viability (NCI-H522; first compound 0.000632 µM): 1.02 | relative viability (NCI-H522; first compound 0.002 µM): 0.703 | relative viability (NCI-H522; first compound 0.006325 µM): 0.419 | relative viability (NCI-H522; first compound 0.02 µM): 0.357 | relative viability (PC-14; first compound 0.0002 µM): 0.199 | relative viability (PC-14; first compound 0.000632 µM): 0.162 | relative viability (PC-14; first compound 0.002 µM): 0.116 | relative viability (PC-14; first compound 0.02 µM): 0.127 | relative viability (NCI-H460; first compound 0.0002 µM): 0.032 | relative viability (NCI-H460; first compound 0.002 µM): 0.0279 | relative viability (NCI-H460; first compound 0.006325 µM): 0.025 | relative viability (NCI-H460; first compound 0.02 µM): 0.0187 | relative viability (NCI-H1915; first compound 0.0002 µM): 0.838 | relative viability (NCI-H1915; first compound 0.000632 µM): 0.796 | relative viability (NCI-H1915; first compound 0.002 µM): 0.467 | relative viability (NCI-H1915; first compound 0.006325 µM): 0.141 | relative viability (NCI-H1915; first compound 0.02 µM): 0.0759 | relative viability (RERF-LC-KJ; first compound 0.0002 µM): 1.16 | relative viability (RERF-LC-KJ; first compound 0.000632 µM): 0.853 | relative viability (RERF-LC-KJ; first compound 0.002 µM): 0.353 | relative viability (RERF-LC-KJ; first compound 0.02 µM): 0.211 | relative viability (NCI-H727; first compound 0.0002 µM): 0.753 | relative viability (NCI-H727; first compound 0.000632 µM): 0.419 | relative viability (NCI-H727; first compound 0.002 µM): 0.351 | relative viability (NCI-H727; first compound 0.006325 µM): 0.353 | relative viability (NCI-H727; first compound 0.02 µM): 0.308 | relative viability (NCI-H1563; first compound 0.0002 µM): 0.518 | relative viability (NCI-H1563; first compound 0.000632 µM): 0.522 | relative viability (NCI-H1563; first compound 0.002 µM): 0.515 | relative viability (NCI-H1563; first compound 0.006325 µM): 0.457 | relative viability (NCI-H1563; first compound 0.02 µM): 0.408 | relative viability (NCI-H1755; first compound 0.0002 µM): 0.427 | relative viability (NCI-H1755; first compound 0.000632 µM): 0.492 | relative viability (NCI-H1755; first compound 0.002 µM): 0.271 | relative viability (NCI-H1755; first compound 0.006325 µM): 0.218 | relative viability (NCI-H1755; first compound 0.02 µM): 0.151 | relative viability (LXF-289; first compound 0.0002 µM): 0.683 | relative viability (LXF-289; first compound 0.000632 µM): 0.694 | relative viability (LXF-289; first compound 0.002 µM): 0.138 | relative viability (LXF-289; first compound 0.006325 µM): 0.111 | relative viability (LXF-289; first compound 0.02 µM): 0.0768 | relative viability (NCI-H322M; first compound 0.0002 µM): 0.836 | relative viability (NCI-H322M; first compound 0.000632 µM): 0.891 | relative viability (NCI-H322M; first compound 0.002 µM): 0.788 | relative viability (NCI-H322M; first compound 0.006325 µM): 0.557 | relative viability (NCI-H322M; first compound 0.02 µM): 0.347
